Test results published in patent publication US12492173B2, “Herbicidal substituted N-tetrazolyl aryl carboxamides” (Bayer Aktiengesellschaft, priority 2019, dated 2025).

Experiments:
Type in all cases: in vivo
Alopecurus myosuroides [1] = assay: Pre-emergence herbicidal action, ALOMY; design: key: % activity: 100 = plants have died, 0 = like control plants; conditions: comparative experiment, 20 g of a.i./ha
From the text: (§1) 1. Pre-Emergence Herbicidal Action Against Harmful Plants Seeds of monocotyledonous and dicotyledonous weed plants and crop plants are laid out in sandy loam soil in wood-fiber pots and covered with soil. The compounds of the invention, formulated in the form of wettable powders (WP) or as emulsion concentrates (EC), are then applied to the surface of the covering soil in the form of an aqueous suspension or emulsion at a water application rate equating to 600 to 800 l/ha, with addition of 0.2% wetting agent. After the treatment, the pots are placed in a greenhouse and kept under good growth conditions for the trial plants. The damage to the test plants is scored visually after a test period of 3 weeks by comparison with untreated controls (herbicidal activity in percent (%): 100% activity=the plants have died, 0% activity=like control plants). […] The tables below illustrate, in an exemplary manner, the […] herbicidal action of the compounds according to the invention, the herbicidal activity being stated in percent. [table] In the experiments that follow, herbicidal action of numerous inventive compounds and the known compounds that are structurally closest from D1 (WO 2012/028579 A1) and D2 (WO 2018/202535 A1) were compared under the above-specified conditions by the pre-emergence and post-emergence method. The example numbers given in the tables relate to the compounds disclosed in the respective documents. In addition to the compounds disclosed in D1 and D2, the following compounds V-1 to V-14 that are encompassed by D1 or D2 but are not compounds specified therein were used in the comparative experiments: • V-1: 2-(methylsulfanyl)-3-(methylsulfinyl)-N-(1-methyl-1H-tetrazol-5-yl)-4-(trifluoromethyl)benzamide • V-2: 2-(methylsulfanyl)-3-(methylsulfonyl)-N-(1-methyl-1H-tetrazol-5-yl)-4-(trifluoromethyl)benzamide • V-3: 2,3-bis(ethylsulfanyl)-N-(1-methyl-1H-tetrazol-5-yl)-4-(trifluoromethyl)benzamide • V-4: 2-chloro-3-(ethylsulfanyl)-N-(1-methyl-1H-tetrazol-5-yl)-4-(trifluoromethyl)benzamide • V-5: 2-chloro-4-iodo-3-(methylsulfanyl)-N-(1-methyl-1H-tetrazol-5-yl)benzamide • V-6: 2-chloro-4-iodo-3-(methylsulfinyl)-N-(1-methyl-1H-tetrazol-5-yl)benzamide • V-7: 2-chloro-4-iodo-3-(methylsulfonyl)-N-(1-methyl-1H-tetrazol-5-yl)benzamide • V-8: 2-bromo-3-(methylsulfanyl)-N-(1-methyl-1H-tetrazol-5-yl)-4-(trifluoromethyl)benzamide • V-9: 2-bromo-3-(methylsulfinyl)-N-(1-methyl-1H-tetrazol-5-yl)-4-(trifluoromethyl)benzamide • V-10: 2-bromo-3-(methylsulfonyl)-N-(1-methyl-1H-tetrazol-5-yl)-4-(trifluoromethyl)benzamide • V-11: 2-bromo-3-(ethylsulfanyl)-N-(1-methyl-1H-tetrazol-5-yl)-4-(trifluoromethyl)benzamide • V-12: 2-bromo-3-(ethylsulfinyl)-N-(1-methyl-1H-tetrazol-5-yl)-4-(trifluoromethyl)benzamide • V-13: 2-bromo-3-(ethylsulfonyl)-N-(1-methyl-1-1H-tetrazol-5-yl)-4-(trifluoromethyl)benzamide • V-14: 2-cyclopropyl-3-(ethylsulfanyl)-N-(1-methyl-1H-tetrazol-5-yl)-4-(trifluoromethyl)benzamide Herbicidal Pre-Emergence Action: […]

Echinochloa crus-galli = assay: Pre-emergence herbicidal action, ECHCG; design: key to Herbicidal action against ECHCG: % activity: 100 = plants have died, 0 = like control plants; conditions: for pest or weed control at 20 g/ha: Echinochloa crus-galli, 504 h, read-out: Herbicidal action against ECHCG
Outline: (§2)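 Pre-emergence soil spray over sandy loam-covered seeds; greenhouse 3 weeks; % visual damage (0% = control, 100% = dead).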

Setaria viridis = assay: Pre-emergence herbicidal action, SETVI; design: key to Herbicidal action against SETVI: % activity: 100 = plants have died, 0 = like control plants; conditions: for Herbicidal action against SETVI: comparative experiment, 20 g of a.i./ha
Outline: as §2

Stellaria media [2] = assay: Pre-emergence herbicidal action, STEME; design: key to Herbicidal action against STEME: % activity: 100 = plants have died, 0 = like control plants; conditions: for Herbicidal action against STEME: comparative experiment, 20 g of a.i./ha
Outline: as §2

Viola tricolor = assay: Pre-emergence herbicidal action, VIOTR; design: key to Herbicidal action against VIOTR: % activity: 100 = plants have died, 0 = like control plants
Outline: as §2

Amaranthus retroflexus [3] = assay: Pre-emergence herbicidal action, AMARE; design: key to Herbicidal action against AMARE: % activity: 100 = plants have died, 0 = like control plants; conditions: for Herbicidal action against AMARE: comparative experiment, 20 g of a.i./ha
Outline: as §2

Cyperus esculentus [4] = assay: Pre-emergence herbicidal action, CYPES; design: key: % activity: 100 = plants have died, 0 = like control plants; conditions: comparative experiment, 20 g of a.i./ha
From the text: as §1

Matricaria inodora = assay: Pre-emergence herbicidal action, MATIN; design: key to Herbicidal action against MATIN: % activity: 100 = plants have died, 0 = like control plants; conditions: for Herbicidal action against MATIN: comparative experiment, 20 g of a.i./ha
Outline: as §2

Veronica persica = assay: Pre-emergence herbicidal action, VERPE; design: key to Herbicidal action against VERPE: % activity: 100 = plants have died, 0 = like control plants; conditions: for Herbicidal action against VERPE: comparative experiment, 20 g of a.i./ha
Outline: as §2

Alopecurus myosuroides [5] = assay: Post-emergence herbicidal action, ALOMY; design: key: % herbicidal action vs untreated; 100 = plants died, 0 = like control; conditions: comparative experiment, post-emergence, 5 g of a.i./ha
Outline: (§3)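 One-leaf-stage weeds, raised from seed in greenhouse sandy loam, received a single foliar spray of compound as wettable powder or emulsion concentrate with 0.2% wetting agent added. Growth continued under optimal conditions for about 3 weeks before percent damage was scored by eye against controls.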

Amaranthus retroflexus [6] = assay: Post-emergence herbicidal action, AMARE; design: key: % herbicidal action vs untreated; 100 = plants died, 0 = like control; conditions: comparative experiment, post-emergence, 5 g of a.i./ha
Outline: as §3

Cyperus esculentus [7] = assay: Post-emergence herbicidal action, CYPES; design: key: % herbicidal action vs untreated; 100 = plants died, 0 = like control; conditions: comparative experiment, post-emergence, 5 g of a.i./ha
Method: (§4) [table] 2. Post-Emergence Herbicidal Action Against Harmful Plants Seeds of monocotyledonous and dicotyledonous weed and crop plants are laid out in sandy loam soil in wood-fiber pots, covered with soil and cultivated in a greenhouse under good growth conditions. 2 to 3 weeks after sowing, the test plants are treated at the one-leaf stage. The compounds of the invention, formulated in the form of wettable powders (WP) or as emulsion concentrates (EC), are then sprayed onto the green parts of the plants in the form of an aqueous suspension or emulsion at a water application rate equating to 600 to 800 l/ha, with addition of 0.2% wetting agent. After the test plants have been left to stand in the greenhouse under optimal growth conditions for about 3 weeks, the action of the preparations is assessed visually in comparison to untreated controls (herbicidal action in percent (%): 100% activity=the plants have died, 0% activity=like control plants). […] The tables below illustrate, in an exemplary manner, the post-emergence herbicidal action of the compounds according to the invention, the herbicidal activity being stated in percent. In the experiments that follow, herbicidal action of numerous inventive compounds and the known compounds that are structurally closest from D1 (WO 2012/028579 A1) and D2 (WO 2018/202535 A1) were compared under the above-specified conditions by the pre-emergence and post-emergence method. The example numbers given in the tables relate to the compounds disclosed in the respective documents. In addition to the compounds disclosed in D1 and D2, the following compounds V-1 to V-14 that are encompassed by D1 or D2 but are not compounds specified therein were used in the comparative experiments: • V-1: 2-(methylsulfanyl)-3-(methylsulfinyl)-N-(1-methyl-1H-tetrazol-5-yl)-4-(trifluoromethyl)benzamide • V-2: 2-(methylsulfanyl)-3-(methylsulfonyl)-N-(1-methyl-1H-tetrazol-5-yl)-4-(trifluoromethyl)benzamide • V-3: 2,3-bis(ethylsulfanyl)-N-(1-methyl-1H-tetrazol-5-yl)-4-(trifluoromethyl)benzamide • V-4: 2-chloro-3-(ethylsulfanyl)-N-(1-methyl-1H-tetrazol-5-yl)-4-(trifluoromethyl)benzamide • V-5: 2-chloro-4-iodo-3-(methylsulfanyl)-N-(1-methyl-1H-tetrazol-5-yl)benzamide • V-6: 2-chloro-4-iodo-3-(methylsulfinyl)-N-(1-methyl-1H-tetrazol-5-yl)benzamide • V-7: 2-chloro-4-iodo-3-(methylsulfonyl)-N-(1-methyl-1H-tetrazol-5-yl)benzamide • V-8: 2-bromo-3-(methylsulfanyl)-N-(1-methyl-1H-tetrazol-5-yl)-4-(trifluoromethyl)benzamide • V-9: 2-bromo-3-(methylsulfinyl)-N-(1-methyl-1H-tetrazol-5-yl)-4-(trifluoromethyl)benzamide • V-10: 2-bromo-3-(methylsulfonyl)-N-(1-methyl-1H-tetrazol-5-yl)-4-(trifluoromethyl)benzamide • V-11: 2-bromo-3-(ethylsulfanyl)-N-(1-methyl-1H-tetrazol-5-yl)-4-(trifluoromethyl)benzamide • V-12: 2-bromo-3-(ethylsulfinyl)-N-(1-methyl-1H-tetrazol-5-yl)-4-(trifluoromethyl)benzamide • V-13: 2-bromo-3-(ethylsulfonyl)-N-(1-methyl-1-1H-tetrazol-5-yl)-4-(trifluoromethyl)benzamide • V-14: 2-cyclopropyl-3-(ethylsulfanyl)-N-(1-methyl-1H-tetrazol-5-yl)-4-(trifluoromethyl)benzamide Herbicidal Pre-Emergence Action: […]

Stellaria media [8] = assay: Post-emergence herbicidal action, STEME; design: key: % herbicidal action vs untreated; 100 = plants died, 0 = like control; conditions: comparative experiment, post-emergence, 5 g of a.i./ha
Outline: as §3

Abutilon theophrasti = assay: Pre-emergence herbicidal action, ABUTH; design: key to Herbicidal action against ABUTH: % activity: 100 = plants have died, 0 = like control plants
Outline: as §2

Hordeum murinum = assay: Pre-emergence herbicidal action, HORMU; conditions: dosage 320 g/ha, scored visually after 3 weeks vs untreated controls (100% = plants have died)
From the text: as §1

Pharbitis purpurea = assay: Pre-emergence herbicidal action, PHBPU; conditions: dosage 320 g/ha, scored visually after 3 weeks vs untreated controls (100% = plants have died)
Outline: as §2

Polygonum convolvulus [9] = assay: Pre-emergence herbicidal action, POLCO
Outline: as §2

Polygonum convolvulus [10] = assay: Post-emergence herbicidal action, POLCO; conditions: comparative experiment, post-emergence, 5 g of a.i./ha
Method: as §4

[11] = comparative experiment, 20 g of a.i./ha
[12] = dosage 320 g/ha, scored visually after 3 weeks vs untreated controls (100% = plants have died)

## Cn1nnnc1NC(=O)c1ccc(C(F)(F)F)c([S+](C)[O-])c1Br (stereo not drawn) [Example V-9, 2-bromo-3-(methylsulfinyl)-N-(1-methyl-1H-tetrazol-5-yl)-4-(trifluoromethyl)benzamide, reference compound]
Alopecurus myosuroides [1]
  Herbicidal action against ALOMY: 20
Echinochloa crus-galli; [11]
  pest or weed control at 20 g/ha: 60%
Setaria viridis
  Herbicidal action against SETVI: 40
Stellaria media [2]
  Herbicidal action against STEME: 60
Viola tricolor; [11]
  Herbicidal action against VIOTR: 70

## CSc1c(I)ccc(C(=O)Nc2nnnn2C)c1Cl [Example V-5, 2-chloro-4-iodo-3-(methylsulfanyl)-N-(1-methyl-1H-tetrazol-5-yl)benzamide, reference compound]
Amaranthus retroflexus [3]
  Herbicidal action against AMARE: 70
Cyperus esculentus [4]
  Herbicidal action against CYPES: 0
Echinochloa crus-galli; [11]
  pest or weed control at 20 g/ha: 0%
Matricaria inodora
  Herbicidal action against MATIN: 20
Setaria viridis
  Herbicidal action against SETVI: 0
Stellaria media [2]
  Herbicidal action against STEME: 0
Veronica persica
  Herbicidal action against VERPE: 0
Alopecurus myosuroides [5]
  Herbicidal action against ALOMY: 40
Amaranthus retroflexus [6]
  Herbicidal action against AMARE: 70
Cyperus esculentus [7]
  Herbicidal action against CYPES: 10
Stellaria media [8]
  Herbicidal action against STEME: 10

## Cn1nnnc1NC(=O)c1ccc(I)c([S+](C)[O-])c1Cl (stereo not drawn) [Example V-6, 2-chloro-4-iodo-3-(methylsulfinyl)-N-(1-methyl-1H-tetrazol-5-yl)benzamide, reference compound]
Abutilon theophrasti; [11]
  Herbicidal action against ABUTH: 40
Alopecurus myosuroides [1]
  Herbicidal action against ALOMY: 30
Amaranthus retroflexus [3]
  Herbicidal action against AMARE: 50
Matricaria inodora
  Herbicidal action against MATIN: 60
Setaria viridis
  Herbicidal action against SETVI: 60
Stellaria media [2]
  Herbicidal action against STEME: 0

## Cn1nnnc1NC(=O)c1ccc(C(F)(F)F)c(S(C)(=O)=O)c1Br [Example V-10, 2-bromo-3-(methylsulfonyl)-N-(1-methyl-1H-tetrazol-5-yl)-4-(trifluoromethyl)benzamide, reference compound]
Alopecurus myosuroides [1]
  Herbicidal action against ALOMY: 10
Veronica persica
  Herbicidal action against VERPE: 60

## CSc1c(C(=O)Nc2nnnn2C)ccc(C(F)(F)F)c1CS(C)(=O)=O [Example 1-163]
Abutilon theophrasti; [12]
  herbicidal activity ABUTH: 100%
Amaranthus retroflexus [3]; [12]
  herbicidal activity AMARE: 100%
Cyperus esculentus [4]
  Herbicidal action against CYPES: 70
Echinochloa crus-galli; [11]
  Herbicidal action against ECHCG: 90
Echinochloa crus-galli; [12]
  herbicidal activity ECHCG: 100%
Hordeum murinum
  herbicidal activity HORMU: 90%
Matricaria inodora; [12]
  herbicidal activity MATIN: 100%
Pharbitis purpurea
  herbicidal activity PHBPU: 80%
Polygonum convolvulus [9]; [11]
  Herbicidal action against POLCO: 70
Polygonum convolvulus [9]; [12]
  herbicidal activity POLCO: 100%
Setaria viridis; [12]
  herbicidal activity SETVI: 100%
Stellaria media [2]; [12]
  herbicidal activity STEME: 100%
Veronica persica; [12]
  herbicidal activity VERPE: 100%
Viola tricolor; [12]
  herbicidal activity VIOTR: 100%
Polygonum convolvulus [10]
  Herbicidal action against POLCO: 70
